Patent US10864197B2, “Biphenyl sulfonamide compounds for the treatment of kidney diseases or disorders” (Retrophin, Inc., priority 2016, dated 2020)

Assays:
Format in all cases: in vivo, human
[1] = tested on: patients with primary focal segmental glomerulosclerosis (FSGS); assay: DUET phase 2 trial: change in urine protein to creatinine (UP/C) ratio, proteinuria; conditions: for Complete remission (UP/C ratio <0.3 g/g), number of patients: 8-week double-blind period; for Reduction from Baseline in UP/C ratio (geometric least squares mean reduction) / Reduction from Baseline in UP/C ratio, intent-to-treat analysis: baseline to week 8; for Reduction from Baseline in UP/C ratio, intent-to-treat analysis: missing data imputed as zero change; for Proportion of patients who achieved UP/C ratio ≤1.5 g/g with >40% reduction: week 8; for percentage of patients achieving UP/C ratio ≤1.5 g/g with >40% reduction during open-label period: 8 weeks to 48 weeks
Description: DUET trial is a phase 2, double-blind, randomized, active-control, dose-escalation study (NCT01613118) that evaluates the efficacy and safety of sparsentan as a treatment for primary focal segmental glomerulosclerosis (FSGS), a rare disorder characterized by massive proteinuria and progressive loss of kidney function. Patients (ranging in age from 8 years to 75 years) with biopsy-proven primary FSGS (or documentation of a genetic mutation in a podocyte protein associated with the disease) having baseline urine protein to creatinine (“UP/C”) ratios greater than […] and estimated glomerular filtration rates greater than 30 ml/min were eligible for the study. The inclusion criteria also included a mean seated blood pressure >[…] and <145/96 mmHg for patients aged 18 years or older, or, for patients aged <18 years of age, a mean seated blood pressure of >90/60 mmHg and <95th percentile for age, gender, and height. The inclusion criteria included an allowance for a stable dose of immunosuppressive medication for ≥1 month. […] Patients who signed consent and met all inclusion and exclusion criteria during the screening phase underwent a 2-week angiotensin receptor blocker (ARB) and angiotensin converting enzyme (ACE) inhibitor washout period before being randomly assigned to one of the three escalating dose cohorts receiving sparsentan (200 mg/day; 400 mg/day; and 800 mg/day) or a fixed maximal dose of active control (the ARB irbesartan, at 300 mg/day) in a 3:1 ratio within each cohort. The primary endpoint was the change in UP/C ratio (determined as a measure of urinary protein excretion) from baseline. […] After the completion of an 8-week double-blind period, the patients continued sparsentan treatment on their assigned doses in an open-label extension for 136 additional weeks. Irbesartan control arm patients were offered sparsentan treatment at the dose they would have received according to the double-blind dose group in which they were enrolled. The analysis of the primary endpoint included 96 randomized patients who received at least one dose of the study drug, and had both baseline and week 8 UP/C ratio values (i.e., had completed 8 weeks of double-blind treatment). The pre-specified analysis order was (1) all sparsentan doses vs. irbesartan; (2) sparsentan 800- and 400-mg doses vs. irbesartan; (3) sparsentan 400-mg dose vs. irbesartan; (4) sparsentan 800-mg dose vs. irbesartan. Baseline or week 8 UP/C ratio data were missing for 9 sparsentan-treated patients and 4 irbesartan-treated patients. An intent-to-treat analysis was conducted, in which the missing data were imputed as zero change in UP/C ratio. […] The results across sparsentan dose cohorts were similar to those observed without imputed data (Table 4).

[2] = DUET trial: systolic and diastolic blood pressure; conditions: double-blind period; irbesartan n=32, sparsentan n=64
Description: DUET trial is a phase 2, double-blind, randomized, active-control, dose-escalation study (NCT01613118) that evaluates the efficacy and safety of sparsentan as a treatment for primary focal segmental glomerulosclerosis (FSGS), a rare disorder characterized by massive proteinuria and progressive loss of kidney function. Patients (ranging in age from 8 years to 75 years) with biopsy-proven primary FSGS (or documentation of a genetic mutation in a podocyte protein associated with the disease) having baseline urine protein to creatinine (“UP/C”) ratios greater than 1 g/g and estimated glomerular filtration rates greater than 30 ml/min were eligible for the study. […]
Patients who signed consent and met all inclusion and exclusion criteria during the screening phase underwent a 2-week angiotensin receptor blocker (ARB) and angiotensin converting enzyme (ACE) inhibitor washout period before being randomly assigned to one of the three escalating dose cohorts receiving sparsentan (200 mg/day; 400 mg/day; and 800 mg/day) or a fixed maximal dose of active control (the ARB irbesartan, at 300 mg/day) in a 3:1 ratio within each cohort. The primary endpoint was the change in UP/C ratio (determined as a measure of urinary protein excretion) from baseline. […]

[3] = DUET trial: eGFR and serum markers; conditions: double-blind period
Description: DUET trial is a phase 2, double-blind, randomized, active-control, dose-escalation study (NCT01613118) that evaluates the efficacy and safety of sparsentan as a treatment for primary focal segmental glomerulosclerosis (FSGS), a rare disorder characterized by massive proteinuria and progressive loss of kidney function. Patients (ranging in age from 8 years to 75 years) with biopsy-proven primary FSGS (or documentation of a genetic mutation in a podocyte protein associated with the disease) having baseline urine protein to creatinine (“UP/C”) ratios greater than 1 g/g and estimated glomerular filtration rates greater than 30 ml/min were eligible for the study. The inclusion criteria also included a mean seated blood pressure >[…] and <145/96 mmHg for patients aged 18 years or older, or, for patients aged <18 years of age, a mean seated blood pressure of >90/60 mmHg and <95th percentile for age, gender, and height. The inclusion criteria included an allowance for a stable dose of immunosuppressive medication for ≥1 month. Exclusion criteria included secondary FSGS; significant medical conditions related to cardiac, hepatic, or immune function; body mass index >[…] for adults or in the 99th percentile plus 5 for pediatric patients; hematocrit <27% or hemoglobin <[…]; serum potassium >5.5 mEq/L; and women who were pregnant, breastfeeding, or of child-bearing potential who were unwilling to use two methods of contraception.
Patients who signed consent and met all inclusion and exclusion criteria during the screening phase underwent a 2-week angiotensin receptor blocker (ARB) and angiotensin converting enzyme (ACE) inhibitor washout period before being randomly assigned to one of the three escalating dose cohorts receiving sparsentan (200 mg/day; 400 mg/day; and 800 mg/day) or a fixed maximal dose of active control (the ARB irbesartan, at 300 mg/day) in a 3:1 ratio within each cohort. The primary endpoint was the change in UP/C ratio (determined as a measure of urinary protein excretion) from baseline. The proportion of patients achieving UP/C ratio ≤1.5 g/g with >40% reduction in UP/C ratio at Week 8, a modified responder analysis, was evaluated as secondary endpoint.

[4] = Baseline, sparsentan 200-800 mg/day (n=64), irbesartan 300 mg/day (n=32)
[5] = Baseline, sparsentan 400-800 mg/day (n=51), irbesartan 300 mg/day (n=25)
[6] = Week 8, sparsentan 200-800 mg/day (n=64), irbesartan 300 mg/day (n=32)
[7] = Week 8, sparsentan 400-800 mg/day (n=51), irbesartan 300 mg/day (n=25)
[8] = dose cohort 200 mg sparsentan, irbesartan 300 mg/day
[9] = dose cohort 400 mg and 800 mg sparsentan, irbesartan 300 mg/day
[10] = dose cohort 400 mg sparsentan, irbesartan 300 mg/day
[11] = dose cohort 800 mg sparsentan, irbesartan 300 mg/day
[12] = dose cohort All (sparsentan 200-800 mg/day; irbesartan 300 mg/day)
[13] = sparsentan 200-800 mg/day (n=64), irbesartan 300 mg/day (n=32)
[14] = sparsentan 400-800 mg/day (n=51), irbesartan 300 mg/day (n=25)

## CCCCC1=NC2(CCCC2)C(=O)N1Cc1ccc(-c2ccccc2-c2nnn[nH]2)cc1 [Irbesartan, irbesartan, reference compound]
[1]
  Complete remission (UP/C ratio <0.3 g/g), number of patients: in no irbesartan-treated patients
[1]; [4]
  UP/C ratio, maximum: 10.73 g/g
  UP/C ratio, mean (SD): 4.017 (2.6717) g/g
  UP/C ratio, median: 3.265 g/g
  UP/C ratio, minimum: 0.88 g/g
[1]; [5]
  UP/C ratio, maximum: 10.73 g/g
  UP/C ratio, mean (SD): 3.816 (2.7160) g/g
  UP/C ratio, median: 2.970 g/g
  UP/C ratio, minimum: 0.88 g/g
[1]; [6]
  UP/C ratio, maximum: 10.19 g/g
  UP/C ratio, mean (SD): 3.164 (2.2713) g/g
  UP/C ratio, median: 2.405 g/g
  UP/C ratio, minimum: 0.43 g/g
[1]; [7]
  UP/C ratio, maximum: 10.19 g/g
  UP/C ratio, mean (SD): 2.990 (2.3598) g/g
  UP/C ratio, median: 2.390 g/g
  UP/C ratio, minimum: 0.43 g/g
[1]; [8]
  Reduction from Baseline in UP/C ratio (geometric least squares mean reduction): 15.0%
[1]; [9]
  Reduction from Baseline in UP/C ratio (geometric least squares mean reduction): 19.0%
[1]; dose cohort 400 mg and 800 mg sparsentan, irbesartan 300 mg/day, listed as irbesartan
  Reduction from Baseline in UP/C ratio (geometric least squares mean reduction): 19%
[1]; [10]
  Reduction from Baseline in UP/C ratio (geometric least squares mean reduction): 28.1%
[1]; [11]
  Reduction from Baseline in UP/C ratio (geometric least squares mean reduction): 9.3%
[1]; [12]
  Reduction from Baseline in UP/C ratio (geometric least squares mean reduction): 18.5%
[1]; dose cohort All (sparsentan 200-800 mg/day; irbesartan 300 mg/day), listed as irbesartan
  Reduction from Baseline in UP/C ratio (geometric least squares mean reduction): 19%
[1]; dose cohort 200 mg
  Reduction from Baseline in UP/C ratio, intent-to-treat analysis: 13.2%
  Proportion of patients who achieved UP/C ratio ≤1.5 g/g with >40% reduction: 0.0%
[1]; dose cohort 400 mg
  Reduction from Baseline in UP/C ratio, intent-to-treat analysis: 23.6%
  Proportion of patients who achieved UP/C ratio ≤1.5 g/g with >40% reduction: 17.7%
[1]; dose cohort 400 mg and 800 mg
  Reduction from Baseline in UP/C ratio, intent-to-treat analysis: 15.9%
  Proportion of patients who achieved UP/C ratio ≤1.5 g/g with >40% reduction: 12.0%
[1]; dose cohort 800 mg
  Reduction from Baseline in UP/C ratio, intent-to-treat analysis: 9.7%
  Proportion of patients who achieved UP/C ratio ≤1.5 g/g with >40% reduction: 0.0%
[1]; dose cohort All
  Reduction from Baseline in UP/C ratio, intent-to-treat analysis: 15.7%
  Proportion of patients who achieved UP/C ratio ≤1.5 g/g with >40% reduction: 9.4%
[1]; [13]
  % Change from Baseline to Week 8 in UP/C ratio, geometric LSmeans: −18.5%
[1]; [14]
  % Change from Baseline to Week 8 in UP/C ratio, geometric LSmeans: −19.0%
[1]; dose cohort All, listed as irbesartan
  Proportion of patients who achieved UP/C ratio ≤1.5 g/g with >40% reduction: 9%
[2]
  mean systolic and diastolic blood pressures relative to baseline: reductions
[3]
  change in N-terminal pro-B-type natriuretic peptide: no significant change or difference
  change in albumin: no significant change or difference
  change in eGFR: no significant change or difference
  change in serum potassium: no significant change or difference

## CCCCC1=NC2(CCCC2)C(=O)N1Cc1ccc(-c2ccccc2S(=O)(=O)Nc2noc(C)c2C)c(COCC)c1 [Sparsentan, 4′-((2-butyl-4-oxo-1,3-diazaspiro[4.4]non-1-en-3-yl)methyl)-N-(4,5-dimethylisoxazol-3-yl)-2′-(ethoxymethyl)-[1,1′-biphenyl]-2-sulfonamide]
[1]
  Complete remission (UP/C ratio <0.3 g/g), number of patients: 4 patients
[1]; patients continuing to receive sparsentan
  percentage of patients achieving UP/C ratio ≤1.5 g/g with >40% reduction during open-label period: increased
[1]; patients switched from irbesartan to sparsentan
  percentage of patients achieving UP/C ratio ≤1.5 g/g with >40% reduction during open-label period: increased
[1]; [4]
  UP/C ratio, maximum: 18.66 g/g
  UP/C ratio, mean (SD): 4.707 (3.7810) g/g
  UP/C ratio, median: 3.620 g/g
  UP/C ratio, minimum: 0.43 g/g
[1]; [5]
  UP/C ratio, maximum: 18.66 g/g
  UP/C ratio, mean (SD): 4.824 (4.0506) g/g
  UP/C ratio, median: 3.530 g/g
  UP/C ratio, minimum: 0.43 g/g
[1]; [6]
  UP/C ratio, maximum: 14.47 g/g
  UP/C ratio, mean (SD): 3.300 (3.5719) g/g
  UP/C ratio, median: 1.980 g/g
  UP/C ratio, minimum: 0.12 g/g
[1]; [7]
  UP/C ratio, maximum: 14.47 g/g
  UP/C ratio, mean (SD): 3.208 (3.4738) g/g
  UP/C ratio, median: 1.900 g/g
  UP/C ratio, minimum: 0.12 g/g
[1]; [8]
  Reduction from Baseline in UP/C ratio (geometric least squares mean reduction): 33.1%
[1]; [9]
  Reduction from Baseline in UP/C ratio (geometric least squares mean reduction): 47.4%
[1]; dose cohort 400 mg and 800 mg sparsentan, irbesartan 300 mg/day, listed as sparsentan
  Reduction from Baseline in UP/C ratio (geometric least squares mean reduction): 47%
[1]; [10]
  Reduction from Baseline in UP/C ratio (geometric least squares mean reduction): 52.7%
[1]; [11]
  Reduction from Baseline in UP/C ratio (geometric least squares mean reduction): 41.3%
[1]; [12]
  Reduction from Baseline in UP/C ratio (geometric least squares mean reduction): 44.8%
[1]; dose cohort All (sparsentan 200-800 mg/day; irbesartan 300 mg/day), listed as sparsentan
  Reduction from Baseline in UP/C ratio (geometric least squares mean reduction): 45%
[1]; dose cohort 200 mg
  Reduction from Baseline in UP/C ratio, intent-to-treat analysis: 33.1%
  Proportion of patients who achieved UP/C ratio ≤1.5 g/g with >40% reduction: 15.4%
[1]; dose cohort 400 mg
  Reduction from Baseline in UP/C ratio, intent-to-treat analysis: 50.5%
  Proportion of patients who achieved UP/C ratio ≤1.5 g/g with >40% reduction: 38.1%
[1]; dose cohort 400 mg and 800 mg
  Reduction from Baseline in UP/C ratio, intent-to-treat analysis: 44.8%
  Proportion of patients who achieved UP/C ratio ≤1.5 g/g with >40% reduction: 31.4%
[1]; dose cohort 800 mg
  Reduction from Baseline in UP/C ratio, intent-to-treat analysis: 38.4%
  Proportion of patients who achieved UP/C ratio ≤1.5 g/g with >40% reduction: 26.7%
[1]; dose cohort All
  Reduction from Baseline in UP/C ratio, intent-to-treat analysis: 42.7%
  Proportion of patients who achieved UP/C ratio ≤1.5 g/g with >40% reduction: 28.1%
[1]; [13]
  % Change from Baseline to Week 8 in UP/C ratio, geometric LSmeans: −44.8%
[1]; [14]
  % Change from Baseline to Week 8 in UP/C ratio, geometric LSmeans: −47.4%
[1]; dose cohort All, listed as sparsentan
  Proportion of patients who achieved UP/C ratio ≤1.5 g/g with >40% reduction: 28%
[2]
  mean systolic and diastolic blood pressures relative to baseline: reduction was statistically significant
[3]
  change in N-terminal pro-B-type natriuretic peptide: no significant change or difference
  change in albumin: no significant change or difference
  change in eGFR: no significant change or difference
  change in serum potassium: no significant change or difference
